Source: ChEMBL document CHEMBL3045574, “Safening Effects of 1, 8-Naphthalic Anhydride in Corn Plants Treated with Bensulfuron-methyl and Imazaquin” (J Pestic Sci, 1997)
Active and inactive are the calls of the source. The calls are words filed in the database; no cut-off is given here.

Key:
[1] = tested on: Zea mays; assay: Effect on pyruvate content in Zea mays (maize) shoot assessed per gram of fresh weight at 0.2 % w/w after 10 days (reference value: 18.4 umol); format: functional
[2] = tested on: Zea mays; assay: Increase of acetolactate synthase activity in Zea mays (maize) at 0.2 % w/w after 15 min relative to control; format: functional
[3] = tested on: Zea mays; assay: Protection against imazaquin-induced growth inhibition of Zea mays (maize) assessed as safening index at 0.05 to 0.4 % w/w treated 1 to 14 days before imazaquin challenge measured after 3 weeks relative to untreated control; format: functional
[4] = tested on: Zea mays; assay: Effect on pyruvate content in Zea mays (maize) embryos assessed per gram of fresh weight at 0.2 % w/w after 10 days (reference value: 8.5 umol); format: functional
[5] = tested on: Zea mays; assay: Decrease of bensulfuron-methyl-induced increase of pyruvate content in Zea mays (maize) assessed per gram of fresh weight at 0.2 % w/w after 10 days; format: functional, organism-based
[6] = tested on: Zea mays; assay: Increase of acetolactate synthase activity in Zea mays (maize) root; format: functional
[7] = tested on: Zea mays; assay: Decrease of imazaquin-induced increase of pyruvate content in Zea mays (maize) assessed per gram of fresh weight at 0.2 % w/w after 10 days; format: functional, organism-based
[8] = tested on: Zea mays; assay: Increase of acetolactate synthase activity in Zea mays (maize) shoot; format: functional
[9] = tested on: Zea mays; assay: Increase of acetyl CoA carboxylase activity in Zea mays (maize) at 0.2 % w/w after 15 min relative to control; format: functional
[10] = tested on: Zea mays; assay: Effect on pyruvate content in Zea mays (maize) roots assessed per gram of fresh weight at 0.2 % w/w after 10 days (reference value: 13.3 umol); format: functional
[11] = tested on: Zea mays; assay: Protection against bensulfuron-methyl-induced growth inhibition of Zea mays (maize) assessed as safening index at 0.05 to 0.4 % w/w treated 1 to 14 days before bensulfuron-methyl challenge measured after 3 weeks relative to untreated control; format: functional
[12] = tested on: Zea mays; assay: Effect on pyruvate content in Zea mays (maize) endosperms assessed per gram of fresh weight at 0.2 % w/w after 10 days (reference value: 11.4 umol); format: functional
[13] = target: T1, Acetolactate synthase (Zea mays, UniProt Q41768+Q41769); assay: Inhibition of Zea mays (maize) acetolactate synthase; format: protein assay
T1 sequence (Q41768 whole entry): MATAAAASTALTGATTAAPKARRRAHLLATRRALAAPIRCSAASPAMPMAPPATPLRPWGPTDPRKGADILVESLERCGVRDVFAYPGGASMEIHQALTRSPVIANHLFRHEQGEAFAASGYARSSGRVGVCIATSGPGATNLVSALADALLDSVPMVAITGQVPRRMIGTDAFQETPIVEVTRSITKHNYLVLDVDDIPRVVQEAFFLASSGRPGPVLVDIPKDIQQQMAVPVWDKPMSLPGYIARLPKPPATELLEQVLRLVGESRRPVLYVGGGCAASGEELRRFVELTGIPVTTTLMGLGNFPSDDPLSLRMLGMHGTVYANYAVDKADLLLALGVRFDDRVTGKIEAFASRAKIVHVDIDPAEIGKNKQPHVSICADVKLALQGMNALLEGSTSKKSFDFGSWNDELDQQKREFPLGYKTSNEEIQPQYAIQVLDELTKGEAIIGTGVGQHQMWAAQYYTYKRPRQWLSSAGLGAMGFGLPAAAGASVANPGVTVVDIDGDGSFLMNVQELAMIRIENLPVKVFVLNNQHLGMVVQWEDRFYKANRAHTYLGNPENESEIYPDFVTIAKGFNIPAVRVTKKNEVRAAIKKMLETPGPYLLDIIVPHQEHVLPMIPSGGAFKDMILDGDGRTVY
T1 sequence (Q41769 whole entry): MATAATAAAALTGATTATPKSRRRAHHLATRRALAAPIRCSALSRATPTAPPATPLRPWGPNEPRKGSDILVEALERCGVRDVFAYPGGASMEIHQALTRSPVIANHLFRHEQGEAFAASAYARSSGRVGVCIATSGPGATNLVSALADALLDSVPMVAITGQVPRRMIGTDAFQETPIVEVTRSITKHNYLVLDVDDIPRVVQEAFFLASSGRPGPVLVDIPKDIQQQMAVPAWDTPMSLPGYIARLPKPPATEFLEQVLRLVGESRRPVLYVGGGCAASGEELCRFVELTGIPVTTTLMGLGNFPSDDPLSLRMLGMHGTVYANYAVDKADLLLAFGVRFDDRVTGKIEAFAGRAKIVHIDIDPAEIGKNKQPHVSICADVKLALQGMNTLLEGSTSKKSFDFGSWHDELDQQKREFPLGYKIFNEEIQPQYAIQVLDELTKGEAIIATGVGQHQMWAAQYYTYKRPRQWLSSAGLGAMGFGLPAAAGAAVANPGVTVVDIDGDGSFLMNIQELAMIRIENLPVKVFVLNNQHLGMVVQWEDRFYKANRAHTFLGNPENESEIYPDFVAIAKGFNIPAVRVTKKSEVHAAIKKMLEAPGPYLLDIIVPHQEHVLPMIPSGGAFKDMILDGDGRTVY

SMILES	Activity [1]	Activity [2]	Ratio [3]	Activity [4]	Activity [5]	Activity [6]	Activity [7]	Activity [8]	Activity [9]	Activity [10]	Ratio [11]	Activity [12]	I50 [13]
O=C1OC(=O)c2cccc3cccc1c23 [1,8-NAPHTHALIC ANHYDRIDE]	16.2 µmol	31.9%	5.1	8 µmol	Active	30%	Active	24%	216%	13 µmol	303	11.2 µmol	–
COC(=O)c1ccccc1CS(=O)(=O)NC(=O)Nc1nc(OC)cc(OC)n1 [BENSULFURON METHYL]	–	–	–	–	–	–	–	–	–	–	–	–	0.2 µM
CC(C)C1(C)N=C(c2nc3ccccc3cc2C(=O)O)NC1=O (centres undefined) [IMAZAQUIN]	–	–	–	–	–	–	–	–	–	–	–	–	11.8 µM
